Measurements taken from the supplement of paper PMC10307832.

Legend:
Test in all cases: relative viability (nuclei count vs DMSO), 5 days (fraction); higher = more cells survive
[1] = compound: CN(c1ncccc1CNc1nc(Nc2ccc3c(c2)CC(=O)N3)ncc1C(F)(F)F)S(C)(=O)=O
In short: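 Following overnight incubation at 37 °C, lung cancer cell lines in 1536-well plates were pinned with five library-drug doses (not always all listed) in √10 steps on vehicle-anchored plates. The cells then spent 5 days without medium change before a combined fix, permeabilisation and Hoechst stain, 4× imaging and MetaXpress nuclear counts. Viability is the treated-to-vehicle ratio of nuclei, taken as the median across plates. Only plates with control CV below 25% and at least one doubling passed.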

[2] = compound: CN(c1ncccc1CNc1nc(Nc2ccc3c(c2)CC(=O)N3)ncc1C(F)(F)F)S(C)(=O)=O + CC(=O)c1c(C)c2cnc(Nc3ccc(N4CCNCC4)cn3)nc2n(C2CCCC2)c1=O [Palbociclib] (partner 0.5 µM)
In short: (§1)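 The day after seeding in 1536-well plates, lung cancer cell lines were treated by pin tool with a single drug, or with a fixed anchor-drug dose together with five library-drug doses (not always all listed) in √10 steps. After 5 days, a combined fix-and-stain solution (final 0.05% Triton X-100, 1% formaldehyde, 1 ug/ml Hoechst) was added. Nuclei counted on 4× images gave relative viability as treated counts over vehicle counts, reported as the median of duplicate plates.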

[3] = compound: CN(c1ncccc1CNc1nc(Nc2ccc3c(c2)CC(=O)N3)ncc1C(F)(F)F)S(C)(=O)=O + COc1cc2c(Oc3ccc(NC(=O)C4(C(=O)Nc5ccc(F)cc5)CC4)cc3F)ccnc2cc1OCCCN1CCOCC1 [Foretinib] (partner 0.25 µM)
In short: as §1

[4] = compound: CN(c1ncccc1CNc1nc(Nc2ccc3c(c2)CC(=O)N3)ncc1C(F)(F)F)S(C)(=O)=O + COc1cccc2cc(-c3nc([C@H]4CC[C@H](C(=O)O)CC4)n4ncnc(N)c34)[nH]c12 [OSI-027] (partner 0.5 µM)
In short: as §1

Row | Cell Line | relative viability ([1]; 0.01 µM) | relative viability ([1]; 0.03162 µM) | relative viability ([1]; 0.1 µM) | relative viability ([1]; 0.3162 µM) | relative viability ([1]; 1 µM) | relative viability ([2]; first compound 0.01 µM) | relative viability ([2]; first compound 0.03162 µM) | relative viability ([2]; first compound 0.1 µM) | relative viability ([2]; first compound 0.3162 µM) | relative viability ([2]; first compound 1 µM) | relative viability ([3]; first compound 0.01 µM) | relative viability ([3]; first compound 0.03162 µM) | relative viability ([3]; first compound 0.1 µM) | relative viability ([3]; first compound 0.3162 µM) | relative viability ([3]; first compound 1 µM) | relative viability ([4]; first compound 0.01 µM) | relative viability ([4]; first compound 0.03162 µM) | relative viability ([4]; first compound 0.1 µM) | relative viability ([4]; first compound 0.3162 µM) | relative viability ([4]; first compound 1 µM)
1 | NCI-H23 | 1.02 | 0.963 | 1.06 | 1.06 | 0.973 | 0.581 | 0.538 | 0.549 | 0.618 | 0.455 | 0.914 | 1.08 | 1.08 | 1.06 | 0.861 | 0.735 | 0.55 | 0.625 | 0.769 | 0.547
2 | NCI-H322M | 1 | 1.03 | 0.917 | 1.12 | 1.12 | 0.481 | 0.503 | 0.529 | 0.475 | 0.488 | 1.05 | 1.09 | 0.986 | 1.21 | 1.31 | 0.562 | 0.598 | 0.537 | 0.599 | 0.623
3 | NCI-H358 | 0.943 | 0.973 | 0.868 | 0.838 | 0.664 | 0.135 | 0.113 | 0.145 | 0.119 | 0.0943 | 0.717 | 0.659 | 0.782 | 0.638 | 0.517 | 0.791 | 0.822 | 0.849 | 0.815 | 0.752
4 | NCI-H441 | 1.09 | 1.15 | 0.901 | 1.22 | 0.767 | 0.23 | 0.239 | 0.181 | 0.176 | 0.16 | 0.974 | 1.14 | 0.999 | 1.17 | 0.761 | 0.76 | 0.725 | 0.596 | 0.77 | 0.518
5 | NCI-H460 | 1 | 1.1 | 0.979 | 1 | 1.02 | 0.147 | 0.179 | 0.148 | 0.21 | 0.15 | 1.1 | 1.09 | 0.892 | 1.02 | 0.972 | 0.666 | 0.964 | 0.691 | 0.705 | 0.665
6 | NCI-H520 | 1.04 | 1.2 | 1.03 | 1.17 | 1.18 | 0.27 | 0.209 | 0.244 | 0.262 | 0.24 | 0.851 | 0.744 | 0.723 | 0.839 | 0.722 | 0.339 | 0.331 | 0.244 | 0.321 | 0.344
7 | NCI-H647 | 0.979 | 1.26 | 1.02 | 0.889 | 0.886 | 0.349 | 0.402 | 0.319 | 0.367 | 0.322 | 1.18 | 1.04 | 1.14 | 1.1 | 1.22 | 0.656 | 0.76 | 0.683 | 0.62 | 0.592
